Test results: ChEMBL document CHEMBL1201862, “PubChem BioAssay data set” (2004)
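Following 48 hours of exposure in 96-well plates, responses at five concentrations were used to interpolate endpoints linearly. GI50 = concentration required for 50% inhibition of growth.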 Active and inactive are the calls of the source. Rule as the data show it: active = GI50 up to about 1.1 µM and inactive = higher.

What was measured:
Experiment in all cases: NCI anticancer screen, dose series, 48 h
ACHN = tested on: ACHN
CCRF-CEM = tested on: CCRF-CEM
DU-145 = tested on: DU-145
HL-60 = tested on: HL-60
HOP-62 = tested on: HOP-62
HOP-92 = tested on: HOP-92
KM12 = tested on: KM12
MDA-MB-435 = tested on: MDA-MB-435
MDA-N = tested on: MDA-N
NCI-H226 = tested on: NCI-H226
NCI-H23 = tested on: NCI-H23
OVCAR-4 = tested on: OVCAR-4
OVCAR-8 = tested on: OVCAR-8
SF-295 = tested on: SF-295
SF-539 = tested on: SF-539
SNB-19 = tested on: SNB-19
SNB-75 = tested on: SNB-75
T47D = tested on: T47D
UACC-257 = tested on: UACC-257
UACC-62 = tested on: UACC-62

Measured: GI50

CCCCc1ccc(Nc2nc(O)c3ncn(COCCO)c3n2)cc1
inactive: ACHN > 100 µM | CCRF-CEM > 100 µM | DU-145 > 100 µM | HL-60 > 100 µM | HOP-62 > 100 µM | HOP-92 > 100 µM | KM12 > 100 µM | MDA-MB-435 > 100 µM | MDA-N > 100 µM | NCI-H226 > 100 µM | NCI-H23 93.8 µM | OVCAR-4 > 100 µM | OVCAR-8 > 100 µM | SF-295 > 100 µM | SF-539 > 100 µM | SNB-19 75.7 µM | SNB-75 > 100 µM | T47D 73.1 µM | UACC-257 > 100 µM | UACC-62 > 100 µM

O=C(NCCCNC(=O)c1ccc2c(O)c(O)ccc2c1)c1ccc2c(O)c(O)ccc2c1
inactive: ACHN 24.2 µM | CCRF-CEM 5.18 µM | DU-145 71.1 µM | HL-60 6.32 µM | HOP-62 21.2 µM | HOP-92 31 µM | KM12 18.3 µM | MDA-MB-435 15.1 µM | MDA-N 19.1 µM | NCI-H226 63 µM | NCI-H23 22.1 µM | OVCAR-4 57.5 µM | OVCAR-8 35.6 µM | SF-295 19.2 µM | SF-539 28.1 µM | SNB-19 25.7 µM | SNB-75 17.1 µM | T47D > 100 µM | UACC-257 21.3 µM | UACC-62 29.9 µM

Cc1c2c(c(C)n1-c1ccccc1)C(=O)N(CCCCN1CCN(c3ccccc3)CC1)C2=O
inactive: ACHN 23.1 µM | CCRF-CEM 7.21 µM | DU-145 19 µM | HL-60 5.5 µM | HOP-62 7.73 µM | HOP-92 8.17 µM | KM12 19.5 µM | MDA-MB-435 8.05 µM | MDA-N 9.57 µM | NCI-H226 9.68 µM | NCI-H23 6.73 µM | OVCAR-4 13 µM | OVCAR-8 14.2 µM | SF-295 14.6 µM | SF-539 12 µM | SNB-19 29 µM | SNB-75 6.89 µM | T47D 3.49 µM | UACC-257 5.36 µM | UACC-62 15.8 µM

COc1ccc2nc3ccc(OC)cc3c(SCc3ccc([N+](=O)[O-])cc3)c2c1
inactive: ACHN 79.1 µM | CCRF-CEM > 100 µM | DU-145 > 100 µM | HL-60 > 100 µM | HOP-62 78.9 µM | HOP-92 > 100 µM | KM12 > 100 µM | MDA-MB-435 > 100 µM | MDA-N > 100 µM | NCI-H226 42.8 µM | NCI-H23 50 µM | OVCAR-4 19 µM | OVCAR-8 52.7 µM | SF-295 31.5 µM | SF-539 39.2 µM | SNB-19 > 100 µM | SNB-75 37.1 µM | T47D > 100 µM | UACC-257 > 100 µM | UACC-62 > 100 µM

Cc1cc2c3ccccc3[nH]c2c2ccnc(C)c12
inactive: ACHN 15.7 µM | CCRF-CEM 2.29 µM | DU-145 6.47 µM | HL-60 2.07 µM | HOP-62 13.6 µM | HOP-92 5.11 µM | KM12 10.6 µM | MDA-MB-435 1.65 µM | MDA-N 1.71 µM | NCI-H226 13.4 µM | NCI-H23 12.5 µM | OVCAR-4 > 100 µM | OVCAR-8 8.69 µM | SF-295 20 µM | SF-539 2.76 µM | SNB-19 18.6 µM | SNB-75 7.28 µM | T47D 16.7 µM | UACC-257 18.2 µM | UACC-62 7.36 µM

O=c1oc2ccccc2cc1P(=O)(O)O
inactive: ACHN > 100 µM | CCRF-CEM > 100 µM | DU-145 > 100 µM | HL-60 > 100 µM | HOP-62 > 100 µM | HOP-92 > 100 µM | MDA-MB-435 > 100 µM | MDA-N > 100 µM | NCI-H226 > 100 µM | NCI-H23 > 100 µM | OVCAR-4 > 100 µM | OVCAR-8 > 100 µM | SF-295 > 100 µM | SF-539 > 100 µM | SNB-19 > 100 µM | SNB-75 > 100 µM | T47D > 100 µM | UACC-257 > 100 µM | UACC-62 > 100 µM

Cc1ccc(Nc2cc(=O)[nH]c(=S)[nH]2)cc1
inactive: ACHN > 100 µM | CCRF-CEM > 100 µM | DU-145 > 100 µM | HL-60 > 100 µM | HOP-62 > 100 µM | HOP-92 > 100 µM | KM12 > 100 µM | MDA-MB-435 > 100 µM | MDA-N > 100 µM | NCI-H226 > 100 µM | NCI-H23 > 100 µM | OVCAR-4 > 100 µM | OVCAR-8 > 100 µM | SF-295 > 100 µM | SF-539 > 100 µM | SNB-19 > 100 µM | SNB-75 > 100 µM | T47D > 100 µM | UACC-257 > 100 µM | UACC-62 > 100 µM
